From US20110300197A1, “FOOD PRODUCT” (Mars, Incorporation, priority 2008, published 2011)

What was measured:
Assay type in all cases: cell-based, dog
Aerobes = experiment: Canine plate biofilm assay (PBA): bacterial viable counts, aerobes; conditions: 48 hours, extracts at 500 μg/ml unless otherwise stated, vs no active control
Method: (§1) The assay requires fresh supragingival canine dental plaque and saliva for inoculation. The inoculum consists of pooled dental plaque and unfiltered saliva sampled from a group of 14 dogs, varying in age, breed and oral health status.
(§2) The plaque and saliva were resuspended in artificial saliva to form the inoculum of approximately 15% plaque and 30% saliva.
(§3) The plate biofilm assay (PBA) utilises a 24 well plate format in which biofilms, representative of canine dental plaque, are grown on hydroxyapatite (HA) discs. Prior to being introduced to the 24 well assay plate, each HA disc is preconditioned for 2 hours in a solution of 50% filter sterilised canine saliva in artificial canine saliva. […] Each HA disc, with the exception of those being used for biomass quantification, is placed into 500 μl PBS and vortex mixed for 30 seconds to remove biofilm growth from the disc into solution. […] Biofilm-covered HA discs that are being used for biomass quantification are removed from the 24 well assay plate and used directly in the crystal violet assay.
(§4) Viable numbers of bacteria were quantified using Columbia blood agar plates supplemented with haemin and menadione. Aerobes were counted after incubation for 2 days and anaerobes, including black pigmenting colonies (BPC), were counted after incubation at appropriate conditions for 9 days. […]

anaerobes = experiment: Canine plate biofilm assay (PBA): bacterial viable counts, anaerobes; conditions: 48 hours, extracts at 500 μg/ml unless otherwise stated, vs no active control
Method: as §1, §2, §3, §4

[1] = test system: black pigmenting colonies (BPC); experiment: Canine plate biofilm assay (PBA): bacterial viable counts, black pigmenting colonies; conditions: 48 hours, extracts at 500 μg/ml unless otherwise stated, vs no active control
Method: as §1, §2, §3, §4

[2] = test system: biofilms representative of canine dental plaque; experiment: Canine plate biofilm assay (PBA): biomass quantification (crystal violet assay); conditions: 48 hours, extracts at 500 μg/ml unless otherwise stated, OD595 vs no active control
Method: as §1, §2
as §3, with “saliva. The preconditioning step stimulates the formation of a salivary pellicle on the HA disc surface.” for “saliva.”
The total amount of biofilm grown on the HA discs was quantified using the crystal violet staining method. Biomass was represented as being directly proportional to the OD reading at 595 nm (0D595) of the samples compared to controls. […]

[3] = test system: trypsin-like protease activity; experiment: Canine plate biofilm assay (PBA): trypsin-like protease activity (liquid BAPNA assay); conditions: 48 hours, extracts at 500 μg/ml unless otherwise stated, vs no active control
Method: as §1, §2
as §3, with “saliva. The preconditioning step stimulates the formation of a salivary pellicle on the HA disc surface.” for “saliva.”
Trypsin-like protease activity was measured using the liquid BAPNA assay, a colourimetric assay in which the amount of trypsin present in a sample is directly proportional to the intensity of the colour developed. […]

SMILES: [H]/N=C(\N/C(=N/[H])NCCCCCCNC(=N)NC(=N)Nc1ccc(Cl)cc1)Nc1ccc(Cl)cc1 [Chlorhexidine, chlorhexidine]
- Aerobe (Log 10 reduction) (Aerobes): 2.87 Log 10
- Anaerobe (Log 10 reduction) (anaerobes): 2.48 Log 10
- BPC (Log 10 reduction) [1]: 2.74 Log 10
- Biomass (% reduction) [2]: 94.40%
- Protease (% reduction) [3]: 95.76%
